Active and inactive are the calls of the source.
What was measured:
[1] = target: Dual specificity protein kinase CLK2 (Homo sapiens, UniProt P49760); format: functional
[2] = target: Serine/threonine-protein kinase PLK4 (Homo sapiens, UniProt O00444); format: functional;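 note: PLK4 measured as one member of a kinome-wide kinase profiling panel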
[3] = target: Serine/threonine-protein kinase D3 (Homo sapiens, UniProt O94806); format: functional;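 note: determined within a kinase panel screen, with PRKCN as the panel member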
Serine/threonine-protein kinase D3, sequence (O94806 whole entry): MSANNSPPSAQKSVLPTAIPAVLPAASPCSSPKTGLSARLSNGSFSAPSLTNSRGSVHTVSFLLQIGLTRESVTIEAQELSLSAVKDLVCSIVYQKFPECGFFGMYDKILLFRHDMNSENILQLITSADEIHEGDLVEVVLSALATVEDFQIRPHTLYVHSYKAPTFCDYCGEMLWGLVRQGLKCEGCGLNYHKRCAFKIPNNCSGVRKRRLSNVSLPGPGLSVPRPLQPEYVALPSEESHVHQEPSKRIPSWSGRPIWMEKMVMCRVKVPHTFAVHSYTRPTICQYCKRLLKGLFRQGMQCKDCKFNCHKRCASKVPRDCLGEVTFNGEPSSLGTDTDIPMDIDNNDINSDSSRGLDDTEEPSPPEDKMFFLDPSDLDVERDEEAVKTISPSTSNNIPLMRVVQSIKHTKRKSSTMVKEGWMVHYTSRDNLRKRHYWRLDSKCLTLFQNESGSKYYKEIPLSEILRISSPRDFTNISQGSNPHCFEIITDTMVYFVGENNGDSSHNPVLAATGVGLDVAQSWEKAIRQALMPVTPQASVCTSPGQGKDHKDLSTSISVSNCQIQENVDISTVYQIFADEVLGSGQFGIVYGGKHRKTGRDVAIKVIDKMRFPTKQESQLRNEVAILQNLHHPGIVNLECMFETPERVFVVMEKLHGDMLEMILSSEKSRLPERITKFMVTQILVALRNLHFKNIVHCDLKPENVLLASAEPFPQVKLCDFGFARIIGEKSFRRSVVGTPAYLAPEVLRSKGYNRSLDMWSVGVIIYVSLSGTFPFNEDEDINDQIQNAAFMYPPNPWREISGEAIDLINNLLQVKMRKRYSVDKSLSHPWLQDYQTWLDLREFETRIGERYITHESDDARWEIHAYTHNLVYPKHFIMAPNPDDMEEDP

[4] = target: Serine/threonine-protein kinase pim-1 (Homo sapiens, UniProt P11309); format: functional
Serine/threonine-protein kinase pim-1, sequence (P11309 whole entry): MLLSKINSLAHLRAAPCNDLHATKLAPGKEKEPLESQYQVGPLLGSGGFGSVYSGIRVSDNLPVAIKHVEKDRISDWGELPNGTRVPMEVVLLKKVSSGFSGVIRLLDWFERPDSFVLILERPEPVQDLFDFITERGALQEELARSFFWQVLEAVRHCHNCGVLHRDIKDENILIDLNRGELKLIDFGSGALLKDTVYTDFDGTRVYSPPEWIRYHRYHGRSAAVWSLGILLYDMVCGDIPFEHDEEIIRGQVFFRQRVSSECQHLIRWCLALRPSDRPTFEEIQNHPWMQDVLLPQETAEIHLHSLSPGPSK

[5] = target: Testis-specific serine/threonine-protein kinase 1 (Homo sapiens, UniProt Q9BXA7); format: functional
Testis-specific serine/threonine-protein kinase 1, sequence (Q9BXA7 whole entry): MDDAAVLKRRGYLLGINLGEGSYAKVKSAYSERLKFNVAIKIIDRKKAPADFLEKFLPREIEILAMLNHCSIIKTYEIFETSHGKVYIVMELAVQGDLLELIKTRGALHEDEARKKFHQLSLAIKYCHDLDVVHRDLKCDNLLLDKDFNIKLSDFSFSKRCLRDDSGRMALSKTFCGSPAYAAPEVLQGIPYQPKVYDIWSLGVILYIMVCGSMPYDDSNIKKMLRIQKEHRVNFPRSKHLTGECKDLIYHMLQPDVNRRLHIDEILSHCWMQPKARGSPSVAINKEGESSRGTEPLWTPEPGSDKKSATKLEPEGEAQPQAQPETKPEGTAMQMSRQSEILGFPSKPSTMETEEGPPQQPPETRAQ

[6] = target: Calcium/calmodulin-dependent protein kinase type 1 (Homo sapiens, UniProt Q14012); format: functional
Calcium/calmodulin-dependent protein kinase type 1, sequence (Q14012 whole entry): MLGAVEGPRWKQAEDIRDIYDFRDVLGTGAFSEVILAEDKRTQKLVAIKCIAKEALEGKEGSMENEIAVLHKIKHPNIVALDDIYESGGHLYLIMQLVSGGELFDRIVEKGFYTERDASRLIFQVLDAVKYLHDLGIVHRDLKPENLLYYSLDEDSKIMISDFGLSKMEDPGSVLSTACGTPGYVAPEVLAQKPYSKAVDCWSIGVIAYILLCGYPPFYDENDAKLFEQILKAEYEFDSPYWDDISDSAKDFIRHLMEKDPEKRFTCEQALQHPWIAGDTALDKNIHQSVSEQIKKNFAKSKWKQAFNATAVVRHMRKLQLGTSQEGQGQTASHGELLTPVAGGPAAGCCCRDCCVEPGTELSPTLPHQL

[7] = target: STE20-like serine/threonine-protein kinase (Homo sapiens, UniProt Q9H2G2); format: functional
STE20-like serine/threonine-protein kinase, sequence (Q9H2G2 whole entry): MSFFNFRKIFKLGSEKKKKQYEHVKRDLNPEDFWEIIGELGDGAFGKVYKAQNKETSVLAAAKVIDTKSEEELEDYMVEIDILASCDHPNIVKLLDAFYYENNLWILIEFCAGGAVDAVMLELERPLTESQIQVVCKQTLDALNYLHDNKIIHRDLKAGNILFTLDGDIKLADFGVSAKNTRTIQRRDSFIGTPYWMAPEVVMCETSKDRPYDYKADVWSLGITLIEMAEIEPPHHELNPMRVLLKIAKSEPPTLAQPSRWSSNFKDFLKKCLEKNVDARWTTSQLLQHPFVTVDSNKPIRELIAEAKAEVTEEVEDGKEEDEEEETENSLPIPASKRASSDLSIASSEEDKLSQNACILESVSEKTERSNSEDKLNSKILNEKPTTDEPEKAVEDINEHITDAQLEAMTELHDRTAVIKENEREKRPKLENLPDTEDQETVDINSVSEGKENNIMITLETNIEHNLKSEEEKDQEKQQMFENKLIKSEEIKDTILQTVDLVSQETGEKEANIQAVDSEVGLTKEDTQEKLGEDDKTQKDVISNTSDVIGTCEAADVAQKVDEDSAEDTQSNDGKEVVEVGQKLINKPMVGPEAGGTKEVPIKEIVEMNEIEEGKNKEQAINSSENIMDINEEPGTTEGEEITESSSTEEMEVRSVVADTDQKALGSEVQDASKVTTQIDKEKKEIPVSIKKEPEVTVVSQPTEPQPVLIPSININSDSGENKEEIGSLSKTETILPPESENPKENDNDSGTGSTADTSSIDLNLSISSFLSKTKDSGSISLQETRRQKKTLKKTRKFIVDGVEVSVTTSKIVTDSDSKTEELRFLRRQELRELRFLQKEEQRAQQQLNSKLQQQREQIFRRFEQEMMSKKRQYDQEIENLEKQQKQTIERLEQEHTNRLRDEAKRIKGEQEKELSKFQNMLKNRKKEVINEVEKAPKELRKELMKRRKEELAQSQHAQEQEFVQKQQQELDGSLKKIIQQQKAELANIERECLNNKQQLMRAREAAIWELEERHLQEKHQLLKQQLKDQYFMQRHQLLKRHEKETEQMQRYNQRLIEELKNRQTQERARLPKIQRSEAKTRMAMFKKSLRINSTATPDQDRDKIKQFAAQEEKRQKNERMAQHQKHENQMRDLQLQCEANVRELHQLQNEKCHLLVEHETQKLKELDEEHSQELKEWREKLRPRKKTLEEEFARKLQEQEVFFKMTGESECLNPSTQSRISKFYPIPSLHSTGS

[8] = target: T1, Histone-lysine N-methyltransferase NSD2 (Homo sapiens, UniProt O96028); format: biochemical
T1 sequence (O96028 whole entry): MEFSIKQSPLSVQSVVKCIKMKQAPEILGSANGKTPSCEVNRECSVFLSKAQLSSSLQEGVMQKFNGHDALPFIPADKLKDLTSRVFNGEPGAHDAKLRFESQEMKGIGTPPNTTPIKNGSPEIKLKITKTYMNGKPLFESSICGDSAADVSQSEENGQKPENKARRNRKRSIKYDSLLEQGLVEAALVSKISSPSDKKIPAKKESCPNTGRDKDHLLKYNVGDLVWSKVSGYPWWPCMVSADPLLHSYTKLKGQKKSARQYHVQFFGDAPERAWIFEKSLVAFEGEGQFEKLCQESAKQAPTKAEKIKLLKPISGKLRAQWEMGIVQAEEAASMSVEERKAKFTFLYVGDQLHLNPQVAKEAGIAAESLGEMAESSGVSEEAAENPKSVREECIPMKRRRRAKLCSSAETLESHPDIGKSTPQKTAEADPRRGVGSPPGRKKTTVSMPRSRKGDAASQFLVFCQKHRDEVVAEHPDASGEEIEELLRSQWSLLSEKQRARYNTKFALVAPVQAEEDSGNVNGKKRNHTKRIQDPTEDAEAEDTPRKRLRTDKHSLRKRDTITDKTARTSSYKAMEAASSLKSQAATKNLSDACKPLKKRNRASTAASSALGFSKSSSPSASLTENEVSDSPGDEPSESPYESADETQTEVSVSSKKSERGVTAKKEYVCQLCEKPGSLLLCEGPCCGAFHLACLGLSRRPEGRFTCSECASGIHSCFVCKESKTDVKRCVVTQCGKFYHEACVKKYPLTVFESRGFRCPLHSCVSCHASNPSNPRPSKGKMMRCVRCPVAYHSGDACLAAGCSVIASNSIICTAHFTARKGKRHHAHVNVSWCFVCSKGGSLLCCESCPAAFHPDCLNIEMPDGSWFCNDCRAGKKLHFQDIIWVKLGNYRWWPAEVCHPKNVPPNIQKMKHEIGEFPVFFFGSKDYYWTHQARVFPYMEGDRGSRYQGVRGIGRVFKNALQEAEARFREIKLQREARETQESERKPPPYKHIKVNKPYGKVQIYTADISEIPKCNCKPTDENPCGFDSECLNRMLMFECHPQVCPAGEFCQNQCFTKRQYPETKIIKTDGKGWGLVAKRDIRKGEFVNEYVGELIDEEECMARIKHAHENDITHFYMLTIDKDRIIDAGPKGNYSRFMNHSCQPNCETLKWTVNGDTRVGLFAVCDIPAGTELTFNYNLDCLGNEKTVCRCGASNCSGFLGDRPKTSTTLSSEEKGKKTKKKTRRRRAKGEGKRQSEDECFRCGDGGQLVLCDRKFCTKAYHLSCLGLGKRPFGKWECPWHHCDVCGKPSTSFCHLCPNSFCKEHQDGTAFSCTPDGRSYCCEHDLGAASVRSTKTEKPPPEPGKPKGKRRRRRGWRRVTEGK

Dual specificity protein kinase CLK2, sequence (P49760 whole entry): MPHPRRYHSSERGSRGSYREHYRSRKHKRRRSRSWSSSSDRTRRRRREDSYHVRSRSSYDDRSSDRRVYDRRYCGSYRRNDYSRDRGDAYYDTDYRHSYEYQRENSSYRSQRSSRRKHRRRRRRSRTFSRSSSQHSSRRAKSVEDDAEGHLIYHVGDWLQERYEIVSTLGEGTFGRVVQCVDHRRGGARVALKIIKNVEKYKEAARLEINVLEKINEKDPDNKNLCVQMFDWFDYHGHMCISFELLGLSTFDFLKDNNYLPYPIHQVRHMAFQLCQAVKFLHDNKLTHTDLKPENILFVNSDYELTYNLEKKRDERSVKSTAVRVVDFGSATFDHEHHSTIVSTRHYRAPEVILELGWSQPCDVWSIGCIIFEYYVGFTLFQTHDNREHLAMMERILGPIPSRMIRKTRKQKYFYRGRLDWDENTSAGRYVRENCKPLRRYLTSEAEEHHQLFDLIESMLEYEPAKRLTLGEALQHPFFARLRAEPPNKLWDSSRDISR
Serine/threonine-protein kinase PLK4, sequence (O00444 whole entry): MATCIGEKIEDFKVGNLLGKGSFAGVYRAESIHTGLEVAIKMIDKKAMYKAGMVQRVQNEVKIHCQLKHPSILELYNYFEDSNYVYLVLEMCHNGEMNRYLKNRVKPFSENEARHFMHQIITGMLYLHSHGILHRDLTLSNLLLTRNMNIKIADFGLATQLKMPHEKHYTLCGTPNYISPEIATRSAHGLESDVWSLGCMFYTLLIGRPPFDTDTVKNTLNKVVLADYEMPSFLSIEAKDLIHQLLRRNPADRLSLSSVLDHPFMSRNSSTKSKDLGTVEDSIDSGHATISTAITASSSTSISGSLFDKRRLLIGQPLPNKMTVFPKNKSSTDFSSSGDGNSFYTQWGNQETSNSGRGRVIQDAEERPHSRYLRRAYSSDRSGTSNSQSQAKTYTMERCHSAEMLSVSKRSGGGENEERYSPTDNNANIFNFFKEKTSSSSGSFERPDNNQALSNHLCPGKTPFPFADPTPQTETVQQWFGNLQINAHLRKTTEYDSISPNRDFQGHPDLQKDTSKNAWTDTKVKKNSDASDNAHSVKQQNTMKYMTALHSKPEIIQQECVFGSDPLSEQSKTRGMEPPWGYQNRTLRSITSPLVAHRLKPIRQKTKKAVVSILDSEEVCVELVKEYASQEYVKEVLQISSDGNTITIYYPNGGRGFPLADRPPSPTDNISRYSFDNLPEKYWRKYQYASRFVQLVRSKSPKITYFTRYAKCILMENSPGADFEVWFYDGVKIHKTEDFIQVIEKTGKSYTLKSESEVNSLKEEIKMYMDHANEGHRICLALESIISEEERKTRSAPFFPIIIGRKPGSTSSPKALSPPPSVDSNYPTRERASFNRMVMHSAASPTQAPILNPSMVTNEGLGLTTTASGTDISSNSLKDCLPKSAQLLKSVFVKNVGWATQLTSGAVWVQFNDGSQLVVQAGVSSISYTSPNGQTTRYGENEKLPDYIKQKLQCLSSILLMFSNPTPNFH

Row | Compound | Ki [1] | Ki [2] | Ki [3] | Ki [4] | Ki [5] | Ki [6] | Ki [7] | AC50 [8]
1 | Cn1cncc1C(OCc1c(-c2ccc(OC(F)(F)F)cc2)cc(C#N)c(=O)n1C)c1ccc(C#N)cc1 (stereo not drawn) | > 7.94 µM (inactive) | > 3.98 µM (inactive) | > 10 µM (inactive) | > 10 µM (inactive) | > 1.58 µM (inactive) | > 5.01 µM (inactive) | > 10 µM (inactive) | –
2 | CCc1ccc(S(=O)(=O)/N=C2\C=C(NS(=O)(=O)c3ccccc3)C(=O)c3ccccc32)cc1 | – | – | – | – | – | – | – | 5.4 µM (active)

— ChEMBL document CHEMBL1201862, “PubChem BioAssay data set” (2004)
